Test results reported in EP2785358B1, “INSULIN-MIMETICS AS THERAPEUTIC ADJUNCTS FOR BONE REGENERATION” (priority 2011, dated 2013).
Values joined by “and” are separate entries in the source; they are usually repeats but may differ in a detail not shown here. Equal values may be shown once. Marks after values point to notes of the source that are not given here.

Legend:
femur fractures [1] = test: Histomorphometry, local VAC without a carrier; type: in vivo, BB Wistar rats; details: for % Cartilage / % Mineralized Tissue / Callus Area: no carrier
Text: Two independent reviewers were used to minimize inconsistencies.

femur fractures [2] = test: Early immunohistochemistry (BrdU cell proliferation), local VAC; type: in vivo, BB Wistar rats
Procedure: At days 2, 4, and 7, and 10, animals were injected intraperitoneally with 30 mg/kg of 5-bromo-2'deoxyuridine (BrdU, Sigma Chemical Co., St. Louis, MO) one hour prior to sacrifice to label replicating cells as a measure of cellular proliferation. The fractured femurs were resected and fixed in formalin, decalcified (Immunocal, Decal Corp., Tallman, NY), embedded in paraffin, and sectioned longitudinally (5 µm thick). Cells positive for BrdU incorporation were detected by immunohistochemistry using commercially available reagents (DAKO Corp., Carpentaria, California). Digital images of each fracture were collected with an Olympus BH2-RFCA microscope equipped with a Nikon DXM1200f camera. For each specimen, callus area was measured and the BrdU positive cells in the periosteal callus region were counted using Image Pro Plus software. All BrdU positive cells in the external callus to a maximum of 1 cm proximal and distal of the fracture site and 3 mm from the external surface of the femur were counted. The number of BrdU positive cells was normalized per unit area of callus and only one datum per rat (BrdU positive cells per mm2) was used for the statistical analysis.

femur fractures [3] = test: Torsional mechanical testing, local VAC without a carrier in normal rats; type: in vivo, non-diabetic BB Wistar rats; design: Percent Effective Shear Modulus / Percent Effective Shear Stress: scale not given: direction of the effect not stated beside the values
Procedure: A closed mid-diaphyseal fracture surgery was performed on the right femur of each rat as described previously. […] A closed, midshaft fracture was then created using a three-point bending fracture instrument (BBC Specialty Automotive, Linden NJ) and confirmed with X-rays immediately post-fracture.

[4] = Vanadium quantification in femur by atomic absorption spectrophotometry; type: in vivo, BB Wistar rats; details: 0.1 mL of 4.35 mg/mL VAC solution (approximately 1.5 mg VAC/kg) into femoral canal
Procedure: BB Wistar rats were anesthetized and confirmed to be non-responsive to external stimuli before beginning the surgical procedure. The anesthetized rat was be exsanguinated by cardiac puncture using a 10 ml syringe with a 22 gauge needle after shallow puncture just lateral to the sternum and through the intercostal space. After puncturing the dermis and cardiac wall slight backpressure was placed on the plunger to withdraw blood from the ventricle. The collected blood was transferred to an appropriate container used for collection of plasma (heparinized) or serum (non-heparinized). Following the cardiac puncture, the rats were euthanized via cervical dislocation.
The excised femora were be stripped of adhering muscle, tendon and other tissue after which the bones were rinsed three times with deionized water, and then placed on glassine paper and air dried. The pin was rinsed once and stored in a clean conical tube. The liver, kidneys, brain, and left humerous collected were rinsed 3x and air dried. The objective of "drying" was to remove adhering water droplets after the water rinse and to allow the true tissue weight to be recorded as precisely as possible. […] The organs were then placed into a low temperature (-80 degrees Celsius) freezer for storage until future analysis (quantification not currently planned). […]

femur fractures [5] = test: Long-term radiographic analysis at twelve weeks, local VAC; type: in vivo, normal (non-diabetic) rats; details: for ectopic bone formation on radiographs: twelve weeks post-fracture
Procedure: The effect of local vanadium therapy on healing of femur fractures in normal (non-diabetic) rats was measured by radiographic analysis.

[6] = VAC 1.5 mg/kg local, 10 Days Post-Fracture
[7] = VAC 1.5 mg/kg local, 14 Days Post-Fracture
[8] = VAC 1.5 mg/kg local, 21 Days Post-Fracture
[9] = VAC 3.0 mg/kg local, 10 Days Post-Fracture
[10] = VAC 3.0 mg/kg local, 14 Days Post-Fracture
[11] = VAC 3.0 mg/kg local, 21 Days Post-Fracture
[12] = VAC 0.5 mg/kg local, no carrier, normal rats, 4 weeks
[13] = VAC 0.5 mg/kg local, no carrier, normal rats, 4 weeks, normalized to intact femur
[14] = VAC 1.5 mg/kg Autoclaved, no carrier, four weeks
[15] = VAC 1.5 mg/kg Gamma Irradiated, no carrier, four weeks
[16] = VAC 1.5 mg/kg local, no carrier, normal rats, 5 weeks
[17] = VAC 1.5 mg/kg local, rats of advanced age (190-195 days), four weeks
[18] = VAC 1.5 mg/kg without sterilization, no carrier, four weeks
[19] = VAC 1.5 mg/kg without sterilization, no carrier, four weeks, normalized to intact femur
[20] = VAC 3.0 mg/kg local, no carrier, normal rats, 4 weeks
[21] = VAC 3.0 mg/kg local, no carrier, normal rats, 4 weeks, normalized to intact femur

CC(=O)/C=C(/C)[O-].CC(=O)/C=C(/C)[O-].[O]=[V+2] [VAC, Vanadyl acetylacetonate]
% Cartilage (femur fractures [1]; [6]): 30.6 ± 12.4^∗ (n=7) % | % Mineralized Tissue (femur fractures [1]; [6]): 15.8 ± 5.1 (n=7) % | Callus Area (femur fractures [1]; [6]): 18.4 ± 3.6 (n=7) mm^2 | % Cartilage (femur fractures [1]; [7]): 14.2 ± 4.9 (n=5) % | % Mineralized Tissue (femur fractures [1]; [7]): 21.3 ± 2.1^∗ (n=5) % | Callus Area (femur fractures [1]; [7]): 21.7 ± 5.0 (n=5) mm^2 | % Cartilage (femur fractures [1]; [8]): 11.0± 4.7 (n=5) % | % Mineralized Tissue (femur fractures [1]; [8]): 32.7 ± 2.9^∗ (n=5) % | Callus Area (femur fractures [1]; [8]): 20.1 ± 4.5 (n=5) mm^2 | percent cartilage compared to controls (femur fractures [1]; VAC 1.5 mg/kg, 7 days (and 10 days), p < 0.05): statistically higher | % Cartilage (femur fractures [1]; [9]): 17.8± 5.5 (n=5) % | % Mineralized Tissue (femur fractures [1]; [9]): 15.2 ± 3.4 (n=5) % | Callus Area (femur fractures [1]; [9]): 18.6 ± 2.9 (n=5) mm^2 | % Cartilage (femur fractures [1]; [10]): 13.0 ± 6.4 (n=5) % | % Mineralized Tissue (femur fractures [1]; [10]): 21.9 ± 3.2^∗ (n=5) % | Callus Area (femur fractures [1]; [10]): 19.3 ± 3.1 (n=5) mm^2 | % Cartilage (femur fractures [1]; [11]): 9.4± 5.7 (n=4) % | % Mineralized Tissue (femur fractures [1]; [11]): 33.4 ± 5.2 (n=4) % | Callus Area (femur fractures [1]; [11]): 20.3± 5.1 (n=4) mm^2 | cell proliferation (BrdU positive cells) in the periosteum versus control (femur fractures [2]; seven and ten days post-fracture, p < 0.05): significantly more proliferating cells per unit area | cell proliferation (BrdU positive cells) versus control (femur fractures [2]; two or four days post-fracture): no significant differences | Percent maximum torsional rigidity (femur fractures [3]; VAC 0.25 mg/kg local, no carrier, normal rats, 4 weeks, normalized to intact femur): 67 ± 21 ^∗ Percent | Maximum Torque to Failure (femur fractures [3]; [12]): 362 ± 49 ^∗,# Nmm | Maximum Torsional Rigidity (femur fractures [3]; [12]): 45,877 ± 13,079^∗ Nmm^2/rad | Percent Maximum Torque to Failure (femur fractures [3]; [13]): 72 ± 19 ^∗ Percent | Percent maximum torsional rigidity (femur fractures [3]; [13]): 103 ± 23 ^∗,# Percent | Effective Shear Modulus (femur fractures [3]; [14]): 9.6×10^2 ± 7.8×10^2 MPa | Maximum Torsional Rigidity (femur fractures [3]; [14]): 3.4×10^4 ± 1.5×10^4* Nmm^2/rad and 3.4×10^4 ± 1.5×10^4∗ Nmm^2/rad | Percent maximum torsional rigidity (femur fractures [3]; VAC 1.5 mg/kg Autoclaved, no carrier, four weeks, normalized to intact femur): 70 ± 31 ^∗ Percent | Effective Shear Modulus (femur fractures [3]; [15]): 7.9×10^2 ± 2.4×10^2 MPa | Maximum Torsional Rigidity (femur fractures [3]; [15]): 2.6×10^4 ± 3.7×10^3 Nmm^2/rad | Maximum Torque to Failure (femur fractures [3]; [16]): 471 ± 91 Nmm | Maximum Torsional Rigidity (femur fractures [3]; [16]): 34,522 ± 8,347^* Nmm^2/rad | Effective Shear Modulus (femur fractures [3]; [17]): 1.3×10^3 ± 1.3×10^3 MPa | Effective Shear Stress (femur fractures [3]; [17]): 43± 17 MPa | Maximum Torsional Rigidity (femur fractures [3]; [17]): 3.0×10^4 ± 1.8×10^4 Nmm^2/rad | Mean Angle at Failure (femur fractures [3]; [17]): 12± 4 degrees | Percent Maximum Torque to Failure (femur fractures [3]; VAC 1.5 mg/kg local, rats of advanced age (190-195 days), four weeks, normalized to intact femur): 44 ± 10^∗ Percent | Effective Shear Modulus (femur fractures [3]; [18]): 2.5×10^3 ± 2.4×10^3 MPa | Effective Shear Stress (femur fractures [3]; [18]): 69 ± 59 MPa | Maximum Torque to Failure (femur fractures [3]; [18]): 329 ± 117 ^∗ Nmm | Maximum Torsional Rigidity (femur fractures [3]; [18]): 3.5×10^4 ± 1.7×10^4* Nmm^2/rad and 3.5×10^4 ± 1.7×10^4∗ Nmm^2/rad | Percent Effective Shear Modulus (femur fractures [3]; [19]): 23 ± 12 ^∗ Percent | Percent maximum torsional rigidity (femur fractures [3]; [19]): 76 ± 28 ^∗ Percent | Effective Shear Modulus (femur fractures [3]; [20]): 2,948 ± 1,218 ^∗ MPa | Effective Shear Stress (femur fractures [3]; [20]): 101 ± 18 ^∗,#,& MPa | Maximum Torque to Failure (femur fractures [3]; [20]): 409 ± 43 ^∗,# Nmm | Maximum Torsional Rigidity (femur fractures [3]; [20]): 41,007 ± 11,236 ^∗ Nmm^2/rad | Percent Effective Shear Modulus (femur fractures [3]; [21]): 20 ± 11 ^∗ Percent | Percent Effective Shear Stress (femur fractures [3]; [21]): 30 ± 12 ^∗,# Percent | Percent Maximum Torque to Failure (femur fractures [3]; [21]): 79 ± 12 ^∗ Percent | Percent maximum torsional rigidity (femur fractures [3]; [21]): 78 ± 10 ^∗ Percent | Maximum Torsional Rigidity (femur fractures [3]; VAC 3.0 mg/kg local, no carrier, normal rats, 5 weeks): 37,496 ± 12,846^∗ Nmm^2/rad | increase in mechanical parameter of torsion (femur fractures [3]; VAC therapeutic dosage range 0.5 to 3.0 mg/Kg): two to three-fold | time locally injected VAC remains bound within the fractured femora [4]: approximately two weeks | ectopic bone formation on radiographs (femur fractures [5]; VAC high (3.0 mg/kg)): no evidence of ectopic bone formation | ectopic bone formation on radiographs (femur fractures [5]; VAC low (1.5 mg/kg)): no evidence of ectopic bone formation | toxic/carcinogenic effect (remodeling of femora) (femur fractures [5]; local VAC, throughout fracture healing, normal remodeling): no evidence of a toxic/carcinogenic effect
